Measured values reported in PubChem BioAssay AID1963450 (Molecular Pharmacology Branch, DTP, NCI, 2024).
pIC50: −log10 of the molar value.

Tested on: 556581-035-R-J1-PDC complex spheroid growth
Experiment: Anticancer human tumor 556581-035-R-J1-PDC patient-derived ovarian carcinoma cell line growth inhibition [Asc]
Conditions: for pIC50: curve of first compound; for viability, T/C: stronger effect = lower value
In short: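 Spheroid model: tumor line + HUVEC + hMSC. Single agents and combinations; top conc. at/near clinical Cmax (10 microM if undetermined), half-log dilutions. DMSO stocks at 800-fold test concentration.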

[1] = second compound 0.01 µM, first compound 0.0316 µM
[2] = second compound 0.01 µM, first compound 0.1 µM
[3] = second compound 0.01 µM, first compound 0.316 µM
[4] = second compound 0.01 µM, first compound 1 µM
[5] = second compound 0.0316 µM, first compound 0.0316 µM
[6] = second compound 0.0316 µM, first compound 0.1 µM
[7] = second compound 0.0316 µM, first compound 0.316 µM
[8] = second compound 0.0316 µM, first compound 1 µM
[9] = second compound 0.1 µM, first compound 0.0316 µM
[10] = second compound 0.1 µM, first compound 0.1 µM
[11] = second compound 0.1 µM, first compound 0.316 µM
[12] = second compound 0.1 µM, first compound 1 µM
[13] = second compound 0.316 µM, first compound 0.0316 µM
[14] = second compound 0.316 µM, first compound 0.1 µM
[15] = second compound 0.316 µM, first compound 0.316 µM
[16] = second compound 0.316 µM, first compound 1 µM
[17] = second compound 1 µM, first compound 0.0316 µM
[18] = second compound 1 µM, first compound 0.1 µM
[19] = second compound 1 µM, first compound 0.316 µM
[20] = second compound 1 µM, first compound 1 µM
[21] = second compound 0.01 µM, first compound 0.00316 µM
[22] = second compound 0.01 µM, first compound 0.01 µM
[23] = second compound 0.0316 µM, first compound 0.00316 µM
[24] = second compound 0.0316 µM, first compound 0.01 µM
[25] = second compound 0.1 µM, first compound 0.00316 µM
[26] = second compound 0.1 µM, first compound 0.01 µM
[27] = second compound 0.316 µM, first compound 0.00316 µM
[28] = second compound 0.316 µM, first compound 0.01 µM
[29] = second compound 1 µM, first compound 0.00316 µM
[30] = second compound 1 µM, first compound 0.01 µM
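Note: spheroids exposed to agents for 7 days before viability read.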

SMILES: C=CC(=O)N1CCN(c2nc(=O)n(-c3c(C)ccnc3C(C)C)c3nc(-c4c(O)cccc4F)c(F)cc23)C(C)C1 (stereo not given) + CNC(C)C(=O)NC1CN(S(=O)(=O)c2cccc(S(=O)(=O)N3CCC4CCC(C(=O)NC(c5ccccc5)c5ccccc5)N4C(=O)C(NC(=O)C(C)NC)C3)c2)CCC2CCC(C(=O)NC(c3ccccc3)c3ccccc3)N2C1=O
- pIC50 (second compound 0.01 µM): < 5.00
- pIC50 (second compound 0.0316 µM): < 5.00
- pIC50 (second compound 0.1 µM): < 5.00
- pIC50 (second compound 0.316 µM): < 5.00
- pIC50 (second compound 1 µM): < 5.00
- viability, T/C [1]: 88.6%
- viability, T/C [2]: 90%
- viability, T/C [3]: 82.4%
- viability, T/C [4]: 101%
- viability, T/C (second compound 0.01 µM, first compound 3.16 µM): 103%
- viability, T/C (second compound 0.01 µM, first compound 10 µM): 86.5%
- viability, T/C [5]: 95%
- viability, T/C [6]: 98%
- viability, T/C [7]: 83%
- viability, T/C [8]: 91.5%
- viability, T/C (second compound 0.0316 µM, first compound 3.16 µM): 94.3%
- viability, T/C (second compound 0.0316 µM, first compound 10 µM): 78.8%
- viability, T/C [9]: 98.3%
- viability, T/C [10]: 81.5%
- viability, T/C [11]: 89.1%
- viability, T/C [12]: 95.3%
- viability, T/C (second compound 0.1 µM, first compound 3.16 µM): 91.3%
- viability, T/C (second compound 0.1 µM, first compound 10 µM): 100%
- viability, T/C [13]: 92.3%
- viability, T/C [14]: 85.2%
- viability, T/C [15]: 94.2%
- viability, T/C [16]: 79.8%
- viability, T/C (second compound 0.316 µM, first compound 3.16 µM): 78.9%
- viability, T/C (second compound 0.316 µM, first compound 10 µM): 81.4%
- viability, T/C [17]: 79.5%
- viability, T/C [18]: 71.5%
- viability, T/C [19]: 86.3%
- viability, T/C [20]: 74.8%
- viability, T/C (second compound 1 µM, first compound 3.16 µM): 87.2%
- viability, T/C (second compound 1 µM, first compound 10 µM): 66.5%

SMILES: COc1c(OCCCN2CCOCC2)ccc2c3n(c(=NC(=O)c4cnc(N)nc4)nc12)CCN3 + CNC(C)C(=O)NC1CN(S(=O)(=O)c2cccc(S(=O)(=O)N3CCC4CCC(C(=O)NC(c5ccccc5)c5ccccc5)N4C(=O)C(NC(=O)C(C)NC)C3)c2)CCC2CCC(C(=O)NC(c3ccccc3)c3ccccc3)N2C1=O
- pIC50 (second compound 0.01 µM): 7.76
- pIC50 (second compound 0.0316 µM): 7.66
- pIC50 (second compound 0.1 µM): 8.02
- pIC50 (second compound 0.316 µM): 7.84
- pIC50 (second compound 1 µM): 8.01
- viability, T/C [21]: 70.3%
- viability, T/C [22]: 58.8%
- viability, T/C [1]: 37.7%
- viability, T/C [2]: 35.7%
- viability, T/C [3]: 19.1%
- viability, T/C [4]: 12.2%
- viability, T/C [23]: 64.2%
- viability, T/C [24]: 58.2%
- viability, T/C [5]: 45.4%
- viability, T/C [6]: 35.5%
- viability, T/C [7]: 22.4%
- viability, T/C [8]: 9.75%
- viability, T/C [25]: 58.6%
- viability, T/C [26]: 49.9%
- viability, T/C [9]: 38.5%
- viability, T/C [10]: 31.6%
- viability, T/C [11]: 19.3%
- viability, T/C [12]: 10.5%
- viability, T/C [27]: 64.6%
- viability, T/C [28]: 53.1%
- viability, T/C [13]: 42.4%
- viability, T/C [14]: 27.5%
- viability, T/C [15]: 16.4%
- viability, T/C [16]: 9.55%
- viability, T/C [29]: 60.7%
- viability, T/C [30]: 47.1%
- viability, T/C [17]: 40.9%
- viability, T/C [18]: 27.3%
- viability, T/C [19]: 14.9%
- viability, T/C [20]: 7.78%

SMILES: NC1CCC(NC2CC2c2ccccc2)CC1 (stereo not given) + CNC(C)C(=O)NC1CN(S(=O)(=O)c2cccc(S(=O)(=O)N3CCC4CCC(C(=O)NC(c5ccccc5)c5ccccc5)N4C(=O)C(NC(=O)C(C)NC)C3)c2)CCC2CCC(C(=O)NC(c3ccccc3)c3ccccc3)N2C1=O
- pIC50 (second compound 0.01 µM): < 7.00
- pIC50 (second compound 0.0316 µM): < 7.00
- pIC50 (second compound 0.1 µM): < 7.00
- pIC50 (second compound 0.316 µM): < 7.00
- pIC50 (second compound 1 µM): < 7.00
- viability, T/C (second compound 0.01 µM, first compound 0.000316 µM): 90.1%
- viability, T/C (second compound 0.01 µM, first compound 0.001 µM): 93.5%
- viability, T/C [21]: 86.5%
- viability, T/C [22]: 92.9%
- viability, T/C [1]: 95.8%
- viability, T/C [2]: 86.8%
- viability, T/C (second compound 0.0316 µM, first compound 0.000316 µM): 86.3%
- viability, T/C (second compound 0.0316 µM, first compound 0.001 µM): 83.8%
- viability, T/C [23]: 87.4%
- viability, T/C [24]: 72%
- viability, T/C [5]: 80.2%
- viability, T/C [6]: 86.1%
- viability, T/C (second compound 0.1 µM, first compound 0.000316 µM): 86.1%
- viability, T/C (second compound 0.1 µM, first compound 0.001 µM): 87.5%
- viability, T/C [25]: 75.1%
- viability, T/C [26]: 64.5%
- viability, T/C [9]: 80.5%
- viability, T/C [10]: 86%
- viability, T/C (second compound 0.316 µM, first compound 0.000316 µM): 75.2%
- viability, T/C (second compound 0.316 µM, first compound 0.001 µM): 73.1%
- viability, T/C [27]: 73%
- viability, T/C [28]: 71.9%
- viability, T/C [13]: 77.3%
- viability, T/C [14]: 64.2%
- viability, T/C (second compound 1 µM, first compound 0.000316 µM): 66.8%
- viability, T/C (second compound 1 µM, first compound 0.001 µM): 73%
- viability, T/C [29]: 73.1%
- viability, T/C [30]: 63.4%
- viability, T/C [17]: 67.6%
- viability, T/C [18]: 71.4%
